The numbers were not newly measured in US20120245201A1, “Isopropylphenidate for Treatment of Attention-Deficit/Hyperactivity Disorder and Fatigue-Related Disorders and Conditions” (priority 2009, published 2012), which cites them from elsewhere.

One series deals with mouse model. To be noted: 5 mg/kg i.p.; cited from earlier work.
For series [1] the following is noted: metabolite after MPH; cited from earlier work.

Take `CCOC(=O)C(c1ccccc1)C1CCCCN1` (stereo not drawn) [d-EPH]: the motor activity entry with mouse model was “significant motor activity”.

Take `O=C(O)C(c1ccccc1)C1CCCCN1` (centres unmarked) [RA, ritalinic acid]: the “blood concentrations relative to the parent compound” value in series [1] is 30-60 times.
